Experimental data reported in ChEMBL document CHEMBL1909046, “DrugMatrix in vitro pharmacology data”.

Experiments:
[1] = molecular target: T1, 5-hydroxytryptamine receptor 2C (Homo sapiens, UniProt P28335); assay: DRUGMATRIX: Serotonin (5-Hydroxytryptamine) 5-HT2C radioligand binding (ligand: [3H] Mesulergine); format: cell membranes, CHO-K1, Membrane; details: Not Active = under 50% inhibition at 10 µM
T1 sequence (P28335 whole entry): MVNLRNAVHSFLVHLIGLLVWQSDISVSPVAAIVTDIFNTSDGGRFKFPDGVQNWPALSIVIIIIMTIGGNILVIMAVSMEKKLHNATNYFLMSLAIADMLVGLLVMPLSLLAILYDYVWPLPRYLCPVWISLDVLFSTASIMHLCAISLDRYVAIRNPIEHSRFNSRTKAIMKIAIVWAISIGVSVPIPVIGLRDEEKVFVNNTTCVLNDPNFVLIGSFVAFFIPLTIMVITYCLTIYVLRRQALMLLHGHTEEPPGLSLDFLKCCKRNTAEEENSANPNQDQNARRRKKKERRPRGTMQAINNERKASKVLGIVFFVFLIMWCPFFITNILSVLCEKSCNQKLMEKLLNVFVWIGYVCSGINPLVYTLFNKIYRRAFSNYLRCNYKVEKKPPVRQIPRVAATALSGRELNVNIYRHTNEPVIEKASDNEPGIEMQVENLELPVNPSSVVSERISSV

[2] = DRUGMATRIX: Purinergic P2X radioligand binding (ligand: [3H] alpha, beta-Methylene-ATP); format: cell membranes, Oryctolagus cuniculus, New Zealand albino, Urinary bladder, Membrane; details: Not Active = under 50% inhibition at 10 µM
[3] = DRUGMATRIX: GABAA, Flunitrazepam, Central radioligand binding (ligand: [3H] Flunitrazepam); format: cell membranes, Rattus norvegicus, Wistar, Brain, Membrane; details: Not Active = under 50% inhibition at 10 µM
[4] = molecular target: Protein phosphatase 3 catalytic subunit alpha (Homo sapiens, UniProt Q08209); design: species or system Escherichia coli;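 also: inhibition of calcineurin (PP2B) enzyme activity, measured with DiFMUP as the substrate; in other assays of this panel Not Active means under 50% inhibition at 10 µM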
[5] = molecular target: T2, C-X-C chemokine receptor type 2 (Homo sapiens, UniProt P25025); format: cell membranes, Membrane; details: cho-k1; also: in other assays of this panel Not Active means under 50% inhibition at 10 µM
T2 sequence (P25025 whole entry): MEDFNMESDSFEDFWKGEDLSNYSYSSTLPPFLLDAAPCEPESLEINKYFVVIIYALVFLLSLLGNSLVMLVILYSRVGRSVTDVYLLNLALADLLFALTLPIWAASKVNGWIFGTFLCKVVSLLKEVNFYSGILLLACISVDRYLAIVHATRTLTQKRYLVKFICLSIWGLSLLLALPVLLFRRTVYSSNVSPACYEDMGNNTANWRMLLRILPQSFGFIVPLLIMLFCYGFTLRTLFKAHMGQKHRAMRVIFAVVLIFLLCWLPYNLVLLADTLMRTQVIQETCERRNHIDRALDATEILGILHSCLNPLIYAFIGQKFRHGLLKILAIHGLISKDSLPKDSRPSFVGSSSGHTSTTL

[6] = molecular target: T3, Alpha-1A adrenergic receptor (Rattus norvegicus, UniProt P43140); assay: DRUGMATRIX: Alpha-1A adrenergic receptor radioligand binding (ligand: prazosin); format: cell membranes, Wistar, Submaxillary gland, Membrane; details: Not Active = under 50% inhibition at 10 µM; for Ki: read-out: Ki
T3 sequence (P43140 whole entry): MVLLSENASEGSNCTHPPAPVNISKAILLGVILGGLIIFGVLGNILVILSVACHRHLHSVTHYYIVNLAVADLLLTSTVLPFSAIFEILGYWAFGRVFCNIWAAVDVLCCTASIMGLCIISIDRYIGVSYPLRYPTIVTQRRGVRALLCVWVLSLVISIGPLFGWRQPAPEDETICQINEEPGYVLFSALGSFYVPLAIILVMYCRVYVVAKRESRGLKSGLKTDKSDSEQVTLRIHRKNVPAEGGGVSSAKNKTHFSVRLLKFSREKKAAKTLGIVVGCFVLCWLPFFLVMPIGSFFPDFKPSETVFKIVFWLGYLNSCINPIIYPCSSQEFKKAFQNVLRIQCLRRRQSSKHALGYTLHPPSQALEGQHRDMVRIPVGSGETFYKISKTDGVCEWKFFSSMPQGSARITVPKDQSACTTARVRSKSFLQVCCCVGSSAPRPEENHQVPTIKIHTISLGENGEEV

[7] = molecular target: T4, Neuropeptide Y receptor type 2 (Homo sapiens, UniProt P49146); format: cell membranes, Membrane; details: kan-ts; also: in other assays of this panel Not Active means under 50% inhibition at 10 µM
T4 sequence (P49146 whole entry): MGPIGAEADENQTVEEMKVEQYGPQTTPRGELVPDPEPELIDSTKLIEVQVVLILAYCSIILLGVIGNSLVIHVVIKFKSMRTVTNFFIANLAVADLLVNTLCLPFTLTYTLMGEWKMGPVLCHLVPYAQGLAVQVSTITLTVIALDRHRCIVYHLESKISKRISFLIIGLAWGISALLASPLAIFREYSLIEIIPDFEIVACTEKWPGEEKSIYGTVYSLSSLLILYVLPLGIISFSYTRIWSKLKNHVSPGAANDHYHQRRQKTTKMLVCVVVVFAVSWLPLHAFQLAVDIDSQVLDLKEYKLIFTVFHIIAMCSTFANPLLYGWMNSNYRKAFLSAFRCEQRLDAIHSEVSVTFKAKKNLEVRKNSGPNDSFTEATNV

[8] = molecular target: Prostaglandin G/H synthase 1 (Homo sapiens, UniProt P23219); assay: biochemical; format: tissue-based, Platelet; details: platelet;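 also: inhibition of COX-1 enzyme activity, with arachidonic acid supplied as substrate; in other assays of this panel Not Active means under 50% inhibition at 10 µM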
[9] = molecular target: Protein kinase C alpha type (Homo sapiens, UniProt P17252); format: cell-based; details: sf9
Interstitial collagenase = molecular target: T5, Interstitial collagenase (Homo sapiens, UniProt P03956); assay: biochemical; format: tissue-based, Rheumatoid synovial fibroblasts
T5 sequence (P03956 whole entry): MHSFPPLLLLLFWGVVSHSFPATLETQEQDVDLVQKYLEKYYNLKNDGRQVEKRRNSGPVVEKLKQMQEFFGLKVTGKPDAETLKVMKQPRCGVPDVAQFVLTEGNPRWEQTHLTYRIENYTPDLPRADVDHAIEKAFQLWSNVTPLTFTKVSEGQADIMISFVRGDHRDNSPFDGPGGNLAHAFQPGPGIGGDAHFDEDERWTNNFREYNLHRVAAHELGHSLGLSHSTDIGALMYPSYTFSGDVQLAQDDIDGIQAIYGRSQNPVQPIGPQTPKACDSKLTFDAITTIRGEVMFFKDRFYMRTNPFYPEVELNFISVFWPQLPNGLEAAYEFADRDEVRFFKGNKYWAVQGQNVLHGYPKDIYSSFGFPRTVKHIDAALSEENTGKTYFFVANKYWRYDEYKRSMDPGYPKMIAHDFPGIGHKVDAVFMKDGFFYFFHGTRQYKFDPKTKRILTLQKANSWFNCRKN

Chain of Prostaglandin G/H synthase 1 (P23219 whole entry): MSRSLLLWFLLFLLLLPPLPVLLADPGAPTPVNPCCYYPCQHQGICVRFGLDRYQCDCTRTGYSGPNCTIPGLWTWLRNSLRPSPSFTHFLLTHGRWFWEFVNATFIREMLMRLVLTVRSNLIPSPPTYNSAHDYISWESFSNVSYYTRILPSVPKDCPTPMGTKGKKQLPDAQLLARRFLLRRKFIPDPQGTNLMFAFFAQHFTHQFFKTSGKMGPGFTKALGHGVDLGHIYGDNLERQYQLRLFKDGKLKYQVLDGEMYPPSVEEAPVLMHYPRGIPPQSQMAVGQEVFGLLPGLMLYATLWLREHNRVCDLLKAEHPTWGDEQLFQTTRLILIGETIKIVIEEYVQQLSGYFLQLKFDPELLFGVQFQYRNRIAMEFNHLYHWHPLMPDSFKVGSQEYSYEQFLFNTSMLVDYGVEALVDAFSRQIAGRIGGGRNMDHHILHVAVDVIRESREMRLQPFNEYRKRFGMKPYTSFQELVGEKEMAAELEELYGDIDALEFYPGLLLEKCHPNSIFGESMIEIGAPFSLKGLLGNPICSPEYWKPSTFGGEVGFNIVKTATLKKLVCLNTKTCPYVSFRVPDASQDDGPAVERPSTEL

Row | SMILES | IC50 ([1]; cho-k1) | IC50 [2] | Ki [2] | IC50 [3] | Ki [3] | IC50 [4] | IC50 [5] | IC50 [6] | IC50 [7] | IC50 [8] | IC50 [9] | IC50 (Interstitial collagenase) | IC50 ([1]; read-out: IC50) | Ki ([1]; read-out: Ki) | IC50 ([6]; read-out: IC50) | Ki [6] | IC50 ([4]; read-out: IC50)
1 | Cc1cc(C)nc(NS(=O)(=O)c2ccc(N)cc2)n1 [SULFAMETHAZINE] | Not Active | Not Active | Not Active | Not Active | Not Active | Not Active | Not Active | Not Active | Not Active | Not Active | Not Active | Not Active |  |  |  |  | 
2 | CN1CCC(=C2c3ccccc3C=Cc3ccccc32)CC1 [CYPROHEPTADINE] |  |  |  |  |  | Not Active | Not Active |  | Not Active | Not Active | Not Active | Not Active | 0.00244 µM | 0.00128 µM | 0.241 µM | 0.098 µM | 
3 | CNC(=C[N+](=O)[O-])NCCSCc1ccc(CN(C)C)o1 [RANITIDINE] | Not Active | Not Active | Not Active | Not Active | Not Active | Not Active | Not Active | Not Active | Not Active | Not Active | Not Active | Not Active |  |  |  |  | 
4 | CC(=O)N1CCN(c2ccc(OCC3COC(Cn4ccnc4)(c4ccc(Cl)cc4Cl)O3)cc2)CC1 (stereo not given) [KETOCONAZOLE] | Not Active | Not Active | Not Active | Not Active | Not Active | Not Active | Not Active |  | Not Active | Not Active | Not Active | Not Active |  |  | 35.7 µM | 14.5 µM | 
5 | CC(C)CC(N(C)C)C1(c2ccc(Cl)cc2)CCC1 (stereo not given) [SIBUTRAMINE] | Not Active | Not Active | Not Active | Not Active | Not Active | Not Active | Not Active | Not Active | Not Active | Not Active | Not Active | Not Active |  |  |  |  | 
6 | Cc1onc(-c2ccccc2)c1-c1ccc(S(N)(=O)=O)cc1 [VALDECOXIB] | Not Active | Not Active | Not Active | Not Active | Not Active | Not Active | Not Active | Not Active | Not Active | Not Active | Not Active | Not Active |  |  |  |  | 
7 | CC/C(=C(/CC)c1ccc(O)cc1)c1ccc(O)cc1 [DIETHYLSTILBESTROL] |  |  |  |  |  | Not Active | Not Active |  | Not Active |  | Not Active | Not Active |  |  | 19.5 µM | 7.89 µM | 
8 | C[C@]1(Cn2ccnn2)[C@H](C(=O)O)N2C(=O)C[C@H]2S1(=O)=O [TAZOBACTAM] | Not Active | Not Active | Not Active | Not Active | Not Active | Not Active | Not Active | Not Active | Not Active | Not Active | Not Active | Not Active |  |  |  |  | 
9 | COCCOC(=O)C1=C(C)NC(C)=C(C(=O)OC(C)C)C1c1cccc([N+](=O)[O-])c1 (stereo not given) [NIMODIPINE] | Not Active | Not Active | Not Active | Not Active | Not Active | Not Active | Not Active | Not Active | Not Active | Not Active | Not Active | Not Active |  |  |  |  | 
10 | Cc1cccc(Nc2ccncc2S(=O)(=O)NC(=O)NC(C)C)c1 [TORSEMIDE] | Not Active | Not Active | Not Active | Not Active | Not Active | Not Active | Not Active | Not Active | Not Active | Not Active | Not Active | Not Active |  |  |  |  | 
11 | [Cl-].[Cl-].[Zn+2] [ZINC CHLORIDE] | Not Active | Not Active | Not Active | Not Active | Not Active |  | Not Active | Not Active | Not Active | Not Active | Not Active | Not Active |  |  |  |  | 1.1 µM
12 | C=CCN1CC[C@]23c4c5ccc(O)c4O[C@H]2C(=O)CC[C@@]3(O)[C@H]1C5 [NALOXONE] | Not Active |  |  |  |  | Not Active | Not Active | Not Active | Not Active | Not Active | Not Active | Not Active |  |  |  |  | 
13 | CC(C)NCC(O)COc1cccc2ccccc12 (stereo not given) [PROPRANOLOL] |  |  |  |  |  | Not Active | Not Active | Not Active | Not Active | Not Active | Not Active | Not Active |  |  |  |  | 
14 | Clc1ccc2c(c1)C(N1CCNCC1)=Nc1ccccc1O2 [AMOXAPINE] |  |  |  |  |  | Not Active | Not Active |  | Not Active | Not Active | Not Active | Not Active |  |  | 0.357 µM | 0.144 µM | 
15 | CC(C)(C)c1ccc(C(O)CCCN2CCC(C(O)(c3ccccc3)c3ccccc3)CC2)cc1 (stereo not given) [TERFENADINE] |  | Not Active | Not Active | Not Active | Not Active | Not Active | Not Active | Not Active | Not Active | Not Active | Not Active | Not Active |  |  |  |  | 
16 | O=C(c1ccc(OCCN2CCCCC2)cc1)c1c(-c2ccc(O)cc2)sc2cc(O)ccc12 [RALOXIFENE] |  | Not Active | Not Active | Not Active | Not Active | Not Active | Not Active |  | Not Active | Not Active | Not Active | Not Active |  |  | 2.2 µM | 0.892 µM | 
17 | COc1cc2c(c(OC)c1OC)-c1ccc(OC)c(=O)cc1[C@@H](NC(C)=O)CC2 [COLCHICINE] | Not Active |  |  |  |  | Not Active | Not Active | Not Active | Not Active | Not Active | Not Active | Not Active |  |  |  |  | 
